Reference: PubChem BioAssay AID328 (DTP/NCI, 2004)
Values joined by “and” are separate entries in the source; they are usually repeats but may differ in a detail not shown here. Equal values may be shown once. Inconclusive results and toxic doses are left out.

System: BDF1 mice, P388 leukemia ip, median survival T/C
Assay: NCI In Vivo Anticancer Drug Screen. Data for tumor model P388 Leukemia (intraperitoneal) in B6D2F1 (BDF1) mice
Settings: endpoint: median survival time, higher = longer survival
Summary of the method: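 Steps: implant the tumour, treat one group with compound and another with vehicle, record survival, then divide treated by control.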

[1] = dose: 25.0 mg/kg/injection, schedule: Q01DX009 (ip), vehicle: saline with Tween-80
[2] = dose: 50.0 mg/kg/injection, schedule: Q01DX009 (ip), vehicle: saline with Tween-80
[3] = dose: 400.0 mg/kg/injection, schedule: Q01DX009 (ip), vehicle: saline with Tween-80
[4] = dose: 100.0 mg/kg/injection, schedule: Q01DX009 (ip), vehicle: saline with Tween-80
[5] = dose: 200.0 mg/kg/injection, schedule: Q01DX009 (ip), vehicle: saline with Tween-80
[6] = dose: 100.0 mg/kg/injection, schedule: Q04DX003 (ip), vehicle: saline with Tween-80
[7] = dose: 200.0 mg/kg/injection, schedule: Q04DX003 (ip), vehicle: saline with Tween-80
[8] = dose: 400.0 mg/kg/injection, schedule: Q04DX003 (ip), vehicle: saline with Tween-80

For `CCN(CC)CCCNc1ncnc2onc(-c3ccccc3)c12`, the T/C (dose: 50.0 mg/kg/injection, schedule: Q01DX009 (ip), vehicle: other) was 107 % of control, the T/C (dose: 100.0 mg/kg/injection, schedule: Q01DX009 (ip), vehicle: other) was 105 % of control and the T/C (dose: 200.0 mg/kg/injection, schedule: Q01DX009 (ip), vehicle: other) was 96 % of control.
With `O=C(CO)c1ccccc1` the T/C (dose: 6.25 mg/kg/injection, schedule: Q01DX009 (ip), vehicle: saline with Tween-80) was 93 % of control, the T/C (dose: 12.5 mg/kg/injection, schedule: Q01DX009 (ip), vehicle: saline with Tween-80) was 95 % of control and the T/C [1] was 93 % of control. The T/C [2] was 104 % of control.
For `O=C(NC1CCCC2C(NC(=O)c3ccccc3)CCCC12)c1ccccc1` (configuration not stated), the T/C (dose: 66.0 mg/kg/injection, schedule: Q01DX009 (ip), vehicle: saline) was 120 % of control, the T/C (dose: 100.0 mg/kg/injection, schedule: Q01DX001 (ip), vehicle: saline) was 104 % of control and the T/C (dose: 100.0 mg/kg/injection, schedule: Q01DX009 (ip), vehicle: saline) was 100 % of control and 109 % of control. The T/C (dose: 150.0 mg/kg/injection, schedule: Q01DX009 (ip), vehicle: saline) was 100 % of control and 109 % of control, the T/C (dose: 200.0 mg/kg/injection, schedule: Q01DX001 (ip), vehicle: saline) was 95 % of control and the T/C (dose: 200.0 mg/kg/injection, schedule: Q01DX009 (ip), vehicle: saline) was 115 % of control. For the same compound, the T/C (dose: 400.0 mg/kg/injection, schedule: Q01DX001 (ip), vehicle: saline) was 104 % of control and the T/C (dose: 400.0 mg/kg/injection, schedule: Q01DX009 (ip), vehicle: saline) was 100 % of control.
In the case of `NC(=O)c1cn[nH]c1N`, the T/C (dose: 12.5 mg/kg/injection, schedule: Q01DX009 (ip), vehicle: Klucel (hydroxypropylcellulose) (HPC)) is reported as 95 % of control, the T/C (dose: 25.0 mg/kg/injection, schedule: Q01DX009 (ip), vehicle: Klucel (hydroxypropylcellulose) (HPC)) is reported as 87 % of control and the T/C (dose: 50.0 mg/kg/injection, schedule: Q01DX009 (ip), vehicle: Klucel (hydroxypropylcellulose) (HPC)) is reported as 91 % of control. For the same compound, the T/C (dose: 100.0 mg/kg/injection, schedule: Q04DX003 (ip), vehicle: Klucel (hydroxypropylcellulose) (HPC)) was 104 % of control, the T/C (dose: 200.0 mg/kg/injection, schedule: Q04DX003 (ip), vehicle: Klucel (hydroxypropylcellulose) (HPC)) was 100 % of control and the T/C (dose: 400.0 mg/kg/injection, schedule: Q04DX003 (ip), vehicle: Klucel (hydroxypropylcellulose) (HPC)) was 113 % of control.
`CN(C)/N=N/c1nc(Cc2ccccc2)[nH]c1C(N)=O` was tested, and the T/C (dose: 177.0 mg/kg/injection, schedule: Q01DX009 (ip), vehicle: saline with Tween-80) was 100 % of control, the T/C (dose: 266.0 mg/kg/injection, schedule: Q01DX009 (ip), vehicle: saline with Tween-80) was 154 % of control and the T/C [3] was 150 % of control. For the same compound, the T/C (dose: 600.0 mg/kg/injection, schedule: Q01DX009 (ip), vehicle: saline with Tween-80) was 195 % of control.
For `O=C1OC(c2ccccc2)=N/C1=C/c1cccs1`, the T/C (dose: 100.0 mg/kg/injection, schedule: Q01DX009 (ip), vehicle: Klucel (hydroxypropylcellulose) (HPC)) was 96 % of control, the T/C (dose: 200.0 mg/kg/injection, schedule: Q01DX009 (ip), vehicle: Klucel (hydroxypropylcellulose) (HPC)) was 88 % of control and the T/C (dose: 400.0 mg/kg/injection, schedule: Q01DX009 (ip), vehicle: Klucel (hydroxypropylcellulose) (HPC)) was 92 % of control.
With `CC1CN(Cc2ccccc2)CC(C)N1` (configuration not stated) the T/C (dose: 50.0 mg/kg/injection, schedule: Q04DX003 (ip), vehicle: water) was 106 % of control, the T/C (dose: 100.0 mg/kg/injection, schedule: Q04DX003 (ip), vehicle: water) was 104 % of control and the T/C (dose: 200.0 mg/kg/injection, schedule: Q04DX003 (ip), vehicle: water) was 92 % of control.
In the case of `CCC(c1ccc(OC(=O)Cc2ccc(N(CCCl)CCCl)cc2)cc1)C(CC)c1ccc(OC(=O)Cc2ccc(N(CCCl)CCCl)cc2)cc1` (configuration not stated), the T/C [1] is reported as 96 % of control, the T/C [2] is reported as 104 % of control and the T/C (dose: 64.0 mg/kg/injection, schedule: Q01DX009 (ip), vehicle: saline with Tween-80) is reported as 92 % of control and 100 % of control. For the same compound, the T/C [4] was 104 % of control, the T/C (dose: 128.0 mg/kg/injection, schedule: Q01DX009 (ip), vehicle: saline with Tween-80) was 92 % of control and 98 % of control and the T/C [5] was 98 % of control. The T/C (dose: 256.0 mg/kg/injection, schedule: Q01DX009 (ip), vehicle: saline with Tween-80) was 93 % of control and 99 % of control, the T/C [3] was 107 % of control and the T/C (dose: 512.0 mg/kg/injection, schedule: Q01DX009 (ip), vehicle: saline with Tween-80) was 98 % of control and 104 % of control.
`O=c1cc(O)ccn1CC(O)c1ccc(Cl)s1` (configuration not stated) was tested, and the T/C [4] was 101 % of control and 111 % of control, the T/C [6] was 109 % of control and the T/C [5] was 92 % of control and 104 % of control. For the same compound, the T/C [7] was 110 % of control, the T/C [3] was 108 % of control and 113 % of control and the T/C [8] was 119 % of control.
For `C/C=C/C1=C(Cl)C(=O)[C@@H](Cl)[C@@]1(O)C(=O)OC`, the T/C (dose: 0.31 mg/kg/injection, schedule: Q01DX009 (ip), vehicle: saline with Tween-80) was 106 % of control, the T/C (dose: 0.63 mg/kg/injection, schedule: Q01DX009 (ip), vehicle: saline with Tween-80) was 115 % of control and the T/C (dose: 1.25 mg/kg/injection, schedule: Q01DX009 (ip), vehicle: saline with Tween-80) was 106 % of control and 117 % of control. The T/C (dose: 2.5 mg/kg/injection, schedule: Q01DX001 (ip), vehicle: saline with Tween-80) was 106 % of control, the T/C (dose: 2.5 mg/kg/injection, schedule: Q04DX003 (ip), vehicle: saline with Tween-80) was 105 % of control and the T/C (dose: 4.4 mg/kg/injection, schedule: Q01DX009 (ip), vehicle: saline with Tween-80) was 121 % of control. The T/C (dose: 5.0 mg/kg/injection, schedule: Q01DX001 (ip), vehicle: saline with Tween-80) was 101 % of control, the T/C (dose: 5.0 mg/kg/injection, schedule: Q04DX003 (ip), vehicle: saline with Tween-80) was 110 % of control and the T/C (dose: 6.6 mg/kg/injection, schedule: Q01DX009 (ip), vehicle: saline with Tween-80) was 122 % of control. The T/C (dose: 8.8 mg/kg/injection, schedule: Q01DX009 (ip), vehicle: saline with Tween-80) was 114 % of control, the T/C (dose: 10.0 mg/kg/injection, schedule: Q01DX001 (ip), vehicle: saline with Tween-80) was 108 % of control and the T/C (dose: 10.0 mg/kg/injection, schedule: Q04DX003 (ip), vehicle: saline with Tween-80) was 108 % of control. For the same compound, the T/C (dose: 13.3 mg/kg/injection, schedule: Q01DX009 (ip), vehicle: saline with Tween-80) was 123 % of control, the T/C (dose: 17.0 mg/kg/injection, schedule: Q01DX001 (ip), vehicle: saline with Tween-80) was 119 % of control and the T/C (dose: 20.0 mg/kg/injection, schedule: Q01DX001 (ip), vehicle: saline with Tween-80) was 112 % of control.
In the case of `CCSC(=O)N1c2ccc(C)cc2C=CC1C#N` (configuration not stated), the T/C (dose: 62.5 mg/kg/injection, schedule: Q01DX001 (ip), vehicle: saline with Tween-80) is reported as 113 % of control, the T/C (dose: 125.0 mg/kg/injection, schedule: Q01DX001 (ip), vehicle: saline with Tween-80) is reported as 104 % of control and the T/C (dose: 250.0 mg/kg/injection, schedule: Q01DX001 (ip), vehicle: saline with Tween-80) is reported as 122 % of control.
`Cc1ccc(C(=O)O)cc1S(=O)(=O)F` was tested, and the T/C [1] was 114 % of control, the T/C [2] was 104 % of control and the T/C (dose: 50.0 mg/kg/injection, schedule: Q04DX003 (ip), vehicle: saline with Tween-80) was 101 % of control. For the same compound, the T/C [4] was 98 % of control, the T/C [6] was 102 % of control and the T/C [5] was 104 % of control. The T/C [7] was 101 % of control, the T/C (dose: 300.0 mg/kg/injection, schedule: Q01DX009 (ip), vehicle: saline with Tween-80) was 110 % of control and the T/C [3] was 123 % of control. The T/C [8] was 101 % of control.
`O=CNc1ccc(C(=O)O)cc1` was tested, and the T/C [6] was 100 % of control, the T/C [7] was 104 % of control and the T/C [8] was 91 % of control.
For `CC(C)CCOC(=O)C(Br)c1ccccc1` (configuration not stated), the T/C (dose: 44.0 mg/kg/injection, schedule: Q01DX009 (ip), vehicle: saline with Tween-80) was 110 % of control, the T/C (dose: 66.0 mg/kg/injection, schedule: Q01DX009 (ip), vehicle: saline with Tween-80) was 107 % of control and the T/C [6] was 108 % of control. For the same compound, the T/C (dose: 150.0 mg/kg/injection, schedule: Q01DX009 (ip), vehicle: saline with Tween-80) was 115 % of control, the T/C [7] was 116 % of control and the T/C [8] was 104 % of control.
With `Nc1cc2c3ccccc3ncc2c2ccccc12` the T/C [6] was 100 % of control, the T/C [7] was 100 % of control and the T/C [8] was 100 % of control.
For `CC1=CC(C)(C)Nc2ccc(CSc3ccccc3)cc21`, the T/C (dose: 50.0 mg/kg/injection, schedule: Q01DX009 (ip), vehicle: saline + alcohol) was 102 % of control, the T/C (dose: 100.0 mg/kg/injection, schedule: Q01DX009 (ip), vehicle: saline + alcohol) was 120 % of control and the T/C (dose: 200.0 mg/kg/injection, schedule: Q01DX009 (ip), vehicle: saline + alcohol) was 120 % of control.
For `COC1C=CC=CC=C1`, the T/C (dose: 15.0 mg/kg/injection, schedule: Q01DX009 (ip), vehicle: saline with Tween-80) was 113 % of control, the T/C (dose: 30.0 mg/kg/injection, schedule: Q01DX009 (ip), vehicle: saline with Tween-80) was 100 % of control and the T/C (dose: 60.0 mg/kg/injection, schedule: Q01DX009 (ip), vehicle: saline with Tween-80) was 113 % of control.
